From ChEMBL document CHEMBL1146813, “Synthesis and antibacterial activity of novel bifunctional macrolides” (2004)
In brackets after ≈: the same amount, converted by molar mass.

Assays:
Assay type in all cases: functional
Haemophilus influenzae = experiment: In vitro antibacterial activity against Haemophilus influenzae GYR1435 (fully susceptible strain)
Streptococcus pneumoniae [1] = experiment: In vitro antibacterial activity against Streptococcus pneumoniae 5979 (MLSB resistant stain bearing an erm (B) gene)
Staphylococcus aureus [2] = experiment: In vitro antibacterial activity against Staphylococcus aureus 1775 (methicillin-resistant strain(MRSA))
Staphylococcus aureus [3] = experiment: In vitro antibacterial activity against Staphylococcus aureus NCTC 10649 (erythromycin-susceptible strain)
Streptococcus pneumoniae [4] = experiment: In vitro antibacterial activity against Streptococcus pneumoniae ATCC 6303 (an erythromycin-susceptible strain)
Streptococcus pneumoniae [5] = experiment: In vitro antibacterial activity against Streptococcus pneumoniae 5649 (efflux-resistant strain bearing a mef (E) gene)

Row | SMILES | MIC (Haemophilus influenzae) | MIC (Streptococcus pneumoniae [1]) | MIC (Staphylococcus aureus [2]) | MIC (Staphylococcus aureus [3]) | MIC (Streptococcus pneumoniae [4]) | MIC (Streptococcus pneumoniae [5])
1 | CC[C@H]1OC(=O)[C@H](C)C(=O)[C@H](C)[C@@H](O[C@@H]2O[C@H](C)C[C@H](N(C)C)[C@H]2O)[C@@](C)(OC)C[C@@H](C)/C(=N\OCCNCCCOCCCNCc2ccc(Oc3ccccc3)cc2)[C@H](C)[C@@H](O)[C@]1(C)O | 2 µg/mL (≈ 2.12 µM) | 0.06 µg/mL (≈ 0.0636 µM) | 64 µg/mL (≈ 67.9 µM) | 2 µg/mL (≈ 2.12 µM) | ≤ 0.008 µg/mL | ≤ 0.008 µg/mL
2 | CC[C@H]1OC(=O)[C@H](C)C(=O)[C@H](C)[C@@H](O[C@@H]2O[C@H](C)C[C@H](N(C)C)[C@H]2O)[C@@](C)(OC)C[C@@H](C)/C(=N\OCCNCCCOCCCNCc2cc(Cl)cc(Cl)c2)[C@H](C)[C@@H](O)[C@]1(C)O | 8 µg/mL (≈ 8.7 µM) | 4 µg/mL (≈ 4.35 µM) | > 128 µg/mL | 1 µg/mL (≈ 1.09 µM) | ≤ 0.008 µg/mL | 0.015 µg/mL (≈ 0.0163 µM)
3 | CC[C@H]1OC(=O)[C@H](C)C(=O)[C@H](C)[C@@H](O[C@@H]2O[C@H](C)C[C@H](N(C)C)[C@H]2O)[C@@](C)(OC)C[C@@H](C)/C(=N\OCCNCCCCCCNCc2cccc(Oc3ccccc3)c2)[C@H](C)[C@@H](O)[C@]1(C)O | 4 µg/mL (≈ 4.31 µM) | 0.12 µg/mL (≈ 0.129 µM) | 64 µg/mL (≈ 69 µM) | 2 µg/mL (≈ 2.16 µM) | ≤ 0.008 µg/mL | 0.5 µg/mL (≈ 0.539 µM)
4 | CC[C@H]1OC(=O)[C@H](C)C(=O)[C@H](C)[C@@H](O[C@@H]2O[C@H](C)C[C@H](N(C)C)[C@H]2O)[C@@](C)(OC)C[C@@H](C)/C(=N\OCCNCCCOCCOCCOCCCNc2ccc(Oc3ccccc3)cc2)[C@H](C)[C@@H](O)[C@]1(C)O | 32 µg/mL (≈ 31.5 µM) | 2 µg/mL (≈ 1.97 µM) | 128 µg/mL (≈ 126 µM) | 2 µg/mL (≈ 1.97 µM) | 0.25 µg/mL (≈ 0.246 µM) | 1 µg/mL (≈ 0.983 µM)
5 | CC[C@H]1OC(=O)[C@H](C)C(=O)[C@H](C)[C@@H](O[C@@H]2O[C@H](C)C[C@H](N(C)C)[C@H]2O)[C@@](C)(OC)C[C@@H](C)/C(=N\OCCNCC2CCC(CNCc3cccc(Oc4ccccc4)c3)CC2)[C@H](C)[C@@H](O)[C@]1(C)O (stereo not given in full) | 8 µg/mL (≈ 8.39 µM) | 2 µg/mL (≈ 2.1 µM) | 64 µg/mL (≈ 67.1 µM) | 4 µg/mL (≈ 4.2 µM) | ≤ 0.008 µg/mL | 0.12 µg/mL (≈ 0.126 µM)
6 | CC[C@H]1OC(=O)[C@H](C)C(=O)[C@H](C)[C@@H](O[C@@H]2O[C@H](C)C[C@H](N(C)C)[C@H]2O)[C@@](C)(OC)C[C@@H](C)/C(=N\OCCNCCCOCCOCCCNc2ccc(Oc3ccccc3)cc2)[C@H](C)[C@@H](O)[C@]1(C)O | 64 µg/mL (≈ 65.8 µM) | 2 µg/mL (≈ 2.05 µM) | 128 µg/mL (≈ 132 µM) | 2 µg/mL (≈ 2.05 µM) | 0.12 µg/mL (≈ 0.123 µM) | 1 µg/mL (≈ 1.03 µM)
7 | CC[C@H]1OC(=O)[C@H](C)C(=O)[C@H](C)[C@@H](O[C@@H]2O[C@H](C)C[C@H](N(C)C)[C@H]2O)[C@@](C)(OC)C[C@@H](C)/C(=N\OCCNCCCOCCCNCc2cnc3ccccc3c2)[C@H](C)[C@@H](O)[C@]1(C)O | 64 µg/mL (≈ 70.9 µM) | 0.25 µg/mL (≈ 0.277 µM) | > 128 µg/mL | 0.5 µg/mL (≈ 0.554 µM) | 0.06 µg/mL (≈ 0.0665 µM) | 0.5 µg/mL (≈ 0.554 µM)
8 | CC[C@H]1OC(=O)[C@H](C)C(=O)[C@H](C)[C@@H](O[C@@H]2O[C@H](C)C[C@H](N(C)C)[C@H]2O)[C@@](C)(OC)C[C@@H](C)/C(=N\OCCNCCCNCc2ccc(Oc3ccccc3)cc2)[C@H](C)[C@@H](O)[C@]1(C)O | 13 µg/mL (≈ 14.7 µM) | 32 µg/mL (≈ 36.2 µM) | 64 µg/mL (≈ 72.3 µM) | 32 µg/mL (≈ 36.2 µM) | 0.12 µg/mL (≈ 0.136 µM) | 1 µg/mL (≈ 1.13 µM)
9 | CC[C@H]1OC(=O)[C@H](C)C(=O)[C@H](C)[C@@H](O[C@@H]2O[C@H](C)C[C@H](N(C)C)[C@H]2O)[C@@](C)(OC)C[C@@H](C)/C(=N\OCCNCCCOCCCNCc2ccccc2)[C@H](C)[C@@H](O)[C@]1(C)O | 128 µg/mL (≈ 150 µM) | 1 µg/mL (≈ 1.17 µM) | ≥ 128 µg/mL | 16 µg/mL (≈ 18.8 µM) | 0.12 µg/mL (≈ 0.141 µM) | 0.25 µg/mL (≈ 0.294 µM)
10 | CC[C@H]1OC(=O)[C@H](C)C(=O)[C@H](C)[C@@H](O[C@@H]2O[C@H](C)C[C@H](N(C)C)[C@H]2O)[C@@](C)(OC)C[C@@H](C)/C(=N\OCCNCCCOCCCCOCCCNCc2ccc3ccccc3c2)[C@H](C)[C@@H](O)[C@]1(C)O | 32 µg/mL (≈ 32.9 µM) | 1 µg/mL (≈ 1.03 µM) | > 128 µg/mL | 32 µg/mL (≈ 32.9 µM) | 0.12 µg/mL (≈ 0.123 µM) | 1 µg/mL (≈ 1.03 µM)
11 | CC[C@H]1OC(=O)[C@H](C)[C@@H](O[C@H]2C[C@@](C)(OC)[C@@H](O)[C@H](C)O2)[C@H](C)[C@@H](O[C@@H]2O[C@H](C)C[C@H](N(C)C)[C@H]2O)[C@](C)(O)C[C@@H](C)C(=O)[C@H](C)[C@@H](O)[C@]1(C)O [ERYTHROMYCIN] | 2 µg/mL (≈ 2.73 µM) | > 128 µg/mL | > 128 µg/mL | 0.25 µg/mL (≈ 0.341 µM) | 0.03 µg/mL (≈ 0.0409 µM) | 4 µg/mL (≈ 5.45 µM)
12 | CC[C@H]1OC(=O)[C@H](C)C(=O)[C@H](C)[C@@H](O[C@@H]2O[C@H](C)C[C@H](N(C)C)[C@H]2O)[C@@](C)(OC)C[C@@H](C)/C(=N\OCCNCCCCCCNCc2ccc(OC)cc2)[C@H](C)[C@@H](O)[C@]1(C)O | 4 µg/mL (≈ 4.62 µM) | 2 µg/mL (≈ 2.31 µM) | > 128 µg/mL | 1 µg/mL (≈ 1.16 µM) | ≤ 0.008 µg/mL | 0.12 µg/mL (≈ 0.139 µM)
13 | CC[C@H]1OC(=O)[C@H](C)[C@@H](OC(=O)NCCCOCCCNC(=O)Cc2ccc(OC)cc2)[C@H](C)[C@@H](O[C@@H]2O[C@H](C)C[C@H](N(C)C)[C@H]2O)[C@@](C)(OC)C[C@@H](C)C(=O)[C@H](C)[C@H]2NC(=O)O[C@@]21C | 16 µg/mL (≈ 17.4 µM) | > 128 µg/mL | > 128 µg/mL | 8 µg/mL (≈ 8.68 µM) | 0.5 µg/mL (≈ 0.543 µM) | 0.5 µg/mL (≈ 0.543 µM)
14 | CC[C@H]1OC(=O)[C@H](C)C(=O)[C@H](C)[C@@H](O[C@@H]2O[C@H](C)C[C@H](N(C)C)[C@H]2O)[C@@](C)(OC)C[C@@H](C)/C(=N\OCCNCCCOCCCNCc2ccc(Cl)c(Cl)c2)[C@H](C)[C@@H](O)[C@]1(C)O | 16 µg/mL (≈ 17.4 µM) | 0.25 µg/mL (≈ 0.272 µM) | > 128 µg/mL | 2 µg/mL (≈ 2.17 µM) | 0.06 µg/mL (≈ 0.0652 µM) | 0.5 µg/mL (≈ 0.543 µM)
15 | CC[C@H]1OC(=O)[C@H](C)C(=O)[C@H](C)[C@@H](O[C@@H]2O[C@H](C)C[C@H](N(C)C)[C@H]2O)[C@](C)(OC)C[C@@H](C)C(=O)[C@H](C)[C@H]2N(CCCCn3cnc(-c4cccnc4)c3)C(=O)O[C@]12C [TELITHROMYCIN] | 2 µg/mL (≈ 2.46 µM) | 0.06 µg/mL (≈ 0.0739 µM) | > 128 µg/mL | 0.06 µg/mL (≈ 0.0739 µM) | ≤ 0.008 µg/mL | 0.25 µg/mL (≈ 0.308 µM)
16 | CC[C@H]1OC(=O)[C@H](C)C(=O)[C@H](C)[C@@H](O[C@@H]2O[C@H](C)C[C@H](N(C)C)[C@H]2O)[C@@](C)(OC)C[C@@H](C)/C(=N\OCCNCC2CCC(CNCc3ccc(Oc4ccccc4)cc3)CC2)[C@H](C)[C@@H](O)[C@]1(C)O (stereo not given in full) | 8 µg/mL (≈ 8.39 µM) | 0.06 µg/mL (≈ 0.0629 µM) | 32 µg/mL (≈ 33.6 µM) | 4 µg/mL (≈ 4.2 µM) | 0.06 µg/mL (≈ 0.0629 µM) | 0.12 µg/mL (≈ 0.126 µM)
17 | C=CC(C)C(=O)NCCNC(=O)O[C@H]1[C@H](C)[C@@H](O[C@@H]2O[C@H](C)C[C@H](N(C)C)[C@H]2O)[C@@](C)(OC)C[C@@H](C)C(=O)[C@H](C)[C@H]2NC(=O)O[C@]2(C)[C@@H](CC)OC(=O)[C@@H]1C (stereo not given in full) | 128 µg/mL (≈ 163 µM) | > 128 µg/mL | > 128 µg/mL | 64 µg/mL (≈ 81.7 µM) | 0.25 µg/mL (≈ 0.319 µM) | 
18 | CC[C@H]1OC(=O)[C@H](C)C(=O)[C@H](C)[C@@H](O[C@@H]2O[C@H](C)C[C@H](N(C)C)[C@H]2O)[C@@](C)(OC)C[C@@H](C)/C(=N\OCCNCCCOCCCNCc2cn(C)c3ccc(F)cc23)[C@H](C)[C@@H](O)[C@]1(C)O | 8 µg/mL (≈ 8.68 µM) | 4 µg/mL (≈ 4.34 µM) | 64 µg/mL (≈ 69.4 µM) | 1 µg/mL (≈ 1.08 µM) | ≤ 0.008 µg/mL | 0.06 µg/mL (≈ 0.0651 µM)
19 | CC[C@H]1OC(=O)[C@H](C)C(=O)[C@H](C)[C@@H](O[C@@H]2O[C@H](C)C[C@H](N(C)C)[C@H]2O)[C@@](C)(OC)C[C@@H](C)C(=O)[C@H](C)[C@@H](O)[C@]1(C)O | 64 µg/mL (≈ 109 µM) | > 128 µg/mL | > 128 µg/mL | 0.5 µg/mL (≈ 0.851 µM) | 0.06 µg/mL (≈ 0.102 µM) | 0.12 µg/mL (≈ 0.204 µM)
20 | CC[C@H]1OC(=O)[C@H](C)C(=O)[C@H](C)[C@@H](O[C@@H]2O[C@H](C)C[C@H](N(C)C)[C@H]2O)[C@](C)(OCC=Cc2cnc3ccccc3c2)C[C@@H](C)C(=O)[C@H](C)[C@H]2NC(=O)O[C@@]21C [CETHROMYCIN] | 0.5 µg/mL (≈ 0.653 µM) | ≤ 0.008 µg/mL | > 128 µg/mL | 0.12 µg/mL (≈ 0.157 µM) | ≤ 0.008 µg/mL | ≤ 0.008 µg/mL
21 | CC[C@H]1OC(=O)[C@H](C)C(=O)[C@H](C)[C@@H](O[C@@H]2O[C@H](C)C[C@H](N(C)C)[C@H]2O)[C@@](C)(OC)C[C@@H](C)/C(=N\OCCNCCCCNCc2ccc(Oc3ccccc3)cc2)[C@H](C)[C@@H](O)[C@]1(C)O | 16 µg/mL (≈ 17.8 µM) | 0.5 µg/mL (≈ 0.556 µM) | 32 µg/mL (≈ 35.6 µM) | 16 µg/mL (≈ 17.8 µM) | 0.015 µg/mL (≈ 0.0167 µM) | 0.25 µg/mL (≈ 0.278 µM)
